Assay results published in US20250034108A1, “SODIUM CHANNEL BLOCKERS” (NOVARTIS AG, priority 2023, published 2025).
Read-outs that look alike come from different tables or passages of the source.

Biological target: human Nav1.5 (Homo sapiens (Human), UniProt Q14524)
Test: Qpatch automated patch-clamp, peak Nav1.5 current inhibition, 5-Hz AF-like assay (holding potential -85 mV)
Format: cell-based
Description: Electrophysiology was used to measure the ionic currents in isolated living cells using automated patch-clamp recording, performed using an automated patch-clamp machine called Qpatch (Sophion Bioscience). Two different assay conditions were used to identify compounds with atrial-selective potential. The 5-Hz AF-like assay has more depolarized holding potential at −85 mV to mimic atrial resting membrane potential (RMP) and was used to identify compounds of strong rate-dependence. Active, rate-dependent compounds were then screened at 1 Hz (i.e., sinus rate) at the holding potential of −100 mV to mimic the ventricular scenario and help identify compounds with the largest potency separation or attenuation from the 5-Hz AF-like assay. Such compounds have the potential for treating AF without the QRS liability inherent to Class Ic drugs.
The sodium current conducted through a cell (via Nav1.5) or electrical signals were processed through a low-pass filter at 5 KHz, re-digitalized and acquired at 20 kHz. Series resistance was not compensated and leak subtraction was performed.
1 to 3 million Chinese Hamster Ovary cells (also known as CHO-K1) stably expressing human Nav1.5 were seeded into […] culture flasks with 25 mL medium (consisting of Gibco Dulbecco's Modified Eagle Medium as a base medium with 1% MEM non-essential amino acids, 400 μg/mL Geneticin, 5 μg/mL puromycin and 10% fetal bovine serum) 48-72 hours prior to the experiments. On the day of the experiment, cells were washed once with phosphate-buffered saline (also known as PBS; Gibco) detached with Detachin™ (Genlantis), and re-suspended in CHO—S-SFM II media (Gibco) at 200,000 cells/mL. The CHO—S-SFM II was replaced with assay solutions prior to the assays. Whole-cell currents were recorded at room temperature in the whole-cell configuration. The external aqueous assay solution (pH=7.4; Osm=307-315) contained the following (the concentration for each component is expressed in parentheses in mM): NaCl (140 mM), KCl (4 mM), CaCl2) (2 mM), MgCl2 (1 mM), 4-(2-hydroxyethyl)-1-piperazineethanesulfonic acid, also known as HEPES (10 mM), and glucose (5 mM). The internal aqueous assay solution (pH=7.2; Osm=292-295) contained the following (the concentration for each component is expressed in parentheses in mM): CsF (110 mM), CsCl (10 mM), NaCl (10 mM), HEPES (10 mM), and ethylene glycolbis(β-aminoethyl ether)-N,N,N′,N′-tetraacetic acid, also known as EGTA (10 mM).
To assess peak Nav1.5 current inhibition in an atrial fibrillation-mimicking condition (Nav1.5 IC50 (5 Hz, AF-like rate) (μM)), compounds were first prepared at 10 mM in DMSO, and cells were pre-incubated with test compounds at each concentration for 3 min. in an ascending order of 0, 0.37, 1.1, 3.3, 10 and 30 μM. An atrial action potential-like protocol consisting of a voltage ramp (+10 mV to −85 mV for a 150 ms duration and a holding potential at −85 mV) was then applied to cells at 5 Hz for 12 s until no further current change or inhibition was observed. The percent inhibition (expressed as ([Iafter compound treatment/Ibefore compound treatment]×100%) is calculated by normalizing the peak current amplitude at the last pulse of each of the 6 compound concentrations by the amplitude before exposure to the test compound. The compiled data was further normalized by vehicle control (DMSO) to account for Nav1.5 current run-down, and IC50 was calculated by Matlab (MathWorks, USA).

[1] = CHO-K1 cells stably expressing human Nav1.5, holding potential -85 mV, Table 5, read-out: Nav1.5 IC50 (5 Hz, AF Rate)
[2] = CHO-K1 cells stably expressing human Nav1.5, Table 6, Examples 63-90, read-out: Nav1.5 IC50 (5 Hz, AF Rate)

Sequence of human Nav1.5 (Q14524 whole entry): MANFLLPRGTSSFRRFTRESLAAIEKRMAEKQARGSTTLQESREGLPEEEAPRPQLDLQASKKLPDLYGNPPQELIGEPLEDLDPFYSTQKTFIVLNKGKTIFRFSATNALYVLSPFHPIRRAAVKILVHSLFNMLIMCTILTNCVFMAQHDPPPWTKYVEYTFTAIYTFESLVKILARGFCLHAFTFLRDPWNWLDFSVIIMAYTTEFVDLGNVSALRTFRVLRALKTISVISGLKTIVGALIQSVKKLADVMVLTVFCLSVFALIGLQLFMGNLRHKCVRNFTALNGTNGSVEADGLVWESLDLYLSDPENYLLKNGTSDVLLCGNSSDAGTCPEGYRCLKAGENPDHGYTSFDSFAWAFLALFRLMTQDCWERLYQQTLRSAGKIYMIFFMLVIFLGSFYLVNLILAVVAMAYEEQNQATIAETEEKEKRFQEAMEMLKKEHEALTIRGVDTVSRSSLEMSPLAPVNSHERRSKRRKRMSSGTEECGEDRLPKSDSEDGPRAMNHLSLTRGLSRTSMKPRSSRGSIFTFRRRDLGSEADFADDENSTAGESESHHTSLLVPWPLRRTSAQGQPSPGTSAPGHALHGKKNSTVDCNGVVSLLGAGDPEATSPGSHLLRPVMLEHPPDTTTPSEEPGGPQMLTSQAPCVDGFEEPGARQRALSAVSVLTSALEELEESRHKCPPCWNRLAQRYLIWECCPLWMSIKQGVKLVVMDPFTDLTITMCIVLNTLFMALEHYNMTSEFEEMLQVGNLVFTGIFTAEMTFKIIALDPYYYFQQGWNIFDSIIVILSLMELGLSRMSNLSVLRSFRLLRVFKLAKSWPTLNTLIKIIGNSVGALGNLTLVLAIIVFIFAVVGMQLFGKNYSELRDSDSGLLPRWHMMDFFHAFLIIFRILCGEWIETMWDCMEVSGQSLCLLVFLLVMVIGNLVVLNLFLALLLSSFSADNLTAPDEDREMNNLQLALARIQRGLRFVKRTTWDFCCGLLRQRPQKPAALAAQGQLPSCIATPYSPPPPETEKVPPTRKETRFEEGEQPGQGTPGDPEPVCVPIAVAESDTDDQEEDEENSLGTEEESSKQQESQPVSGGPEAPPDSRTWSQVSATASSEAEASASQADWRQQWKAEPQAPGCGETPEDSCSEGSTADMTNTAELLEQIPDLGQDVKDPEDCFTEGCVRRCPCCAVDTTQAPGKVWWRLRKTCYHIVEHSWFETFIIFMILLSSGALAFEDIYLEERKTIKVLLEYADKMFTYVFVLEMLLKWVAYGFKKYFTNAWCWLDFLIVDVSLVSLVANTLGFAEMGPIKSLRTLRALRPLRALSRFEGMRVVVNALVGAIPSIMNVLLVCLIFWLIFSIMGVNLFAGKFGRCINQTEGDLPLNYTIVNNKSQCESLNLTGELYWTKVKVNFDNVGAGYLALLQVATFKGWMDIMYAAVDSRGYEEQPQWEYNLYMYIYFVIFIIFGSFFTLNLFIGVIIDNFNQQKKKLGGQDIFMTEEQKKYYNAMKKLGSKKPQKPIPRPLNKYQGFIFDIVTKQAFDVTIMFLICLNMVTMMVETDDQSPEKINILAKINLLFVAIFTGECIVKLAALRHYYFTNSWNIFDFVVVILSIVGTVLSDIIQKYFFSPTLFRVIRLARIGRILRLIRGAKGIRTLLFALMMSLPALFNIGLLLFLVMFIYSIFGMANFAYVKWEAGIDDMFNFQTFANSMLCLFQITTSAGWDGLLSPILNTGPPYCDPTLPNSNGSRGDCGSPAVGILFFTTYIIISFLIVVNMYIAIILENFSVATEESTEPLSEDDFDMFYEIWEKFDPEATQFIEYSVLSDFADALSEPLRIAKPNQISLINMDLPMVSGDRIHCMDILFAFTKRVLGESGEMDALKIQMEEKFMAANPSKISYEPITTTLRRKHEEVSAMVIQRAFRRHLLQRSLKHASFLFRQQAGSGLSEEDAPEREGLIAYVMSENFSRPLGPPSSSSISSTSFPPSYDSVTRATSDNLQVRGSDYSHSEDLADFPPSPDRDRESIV

| Compound | IC50 [1] [µM] | IC50 [2] [µM] |
| --- | --- | --- |
| 3-(6-(1-(2-fluoro-5-(trifluoromethoxy)benzyl)-1H-pyrazol-3-yl)pyridin-2-yl)-3-hydroxy-2-methylbutane-2-sulfonamide [Example 54] | 4.2 |  |
| CCC(O)(CS(N)(=O)=O)c1cccc(-c2ccn(Cc3cc(OC(F)(F)F)ccc3F)n2)n1 (racemic) [Example 35, 2-(6-(1-(2-fluoro-5-(trifluoromethoxy)benzyl)-1H-pyrazol-3-yl)pyridin-2-yl)-2-hydroxybutane-1-sulfonamide] | 4 |  |
| NS(=O)(=O)CC(O)c1cccc(-c2nnn(Cc3cc(OC(F)(F)F)ccc3F)n2)n1 (racemic) [Example 48, 2-(6-(2-(2-fluoro-5-(trifluoromethoxy)benzyl)-2H-tetrazol-5-yl)pyridin-2-yl)-2-hydroxyethane-1-sulfonamide] | 5.5 |  |
| CC(C)(C(O)c1cccc(-c2ccn(Cc3cc(OC(F)(F)F)ccc3F)n2)n1)S(N)(=O)=O (racemic) [Example 53, 1-(6-(1-(2-fluoro-5-(trifluoromethoxy)benzyl)-1H-pyrazol-3-yl)pyridin-2-yl)-1-hydroxy-2-methylpropane-2-sulfonamide] | 12 |  |
| CC(O)(CS(N)(=O)=O)c1cccc(-c2nnn(Cc3cc(OC(F)(F)F)ccc3F)n2)n1 (racemic) [Rac-1 + 2, 2-(6-(2-(2-fluoro-5-(trifluoromethoxy)benzyl)-2H-tetrazol-5-yl)pyridin-2-yl)-2-hydroxypropane-1-sulfonamide] | 3.6 |  |
| CC(O)(CS(N)(=O)=O)c1cccc(-c2nnn(Cc3c(F)ccc4c3OC(F)(F)O4)n2)n1 (racemic) [Rac-3 + 4, 2-hydroxy-2-(6-(2-((2,2,5-trifluorobenzo[d][1,3]dioxol-4-yl)methyl)-2H-tetrazol-5-yl)pyridin-2-yl)propane-1-sulfonamide] | 7 |  |
| CC(O)(CS(N)(=O)=O)c1cccc(-c2nc(Cc3cc(OC(F)(F)F)ccc3F)no2)n1 (racemic) [Rac-57 + 58, 2-(6-(3-(2-fluoro-5-(trifluoromethoxy)benzyl)-1,2,4-oxadiazol-5-yl)pyridin-2-yl)-2-hydroxypropane-1-sulfonamide] | 3.7 |  |
| CC(O)(CS(N)(=O)=O)c1cccc(-c2nnn(Cc3cc(F)ccc3F)n2)n1 (single isomer, unassigned) [Example 17, (R or S)-2-(6-(2-(2,5-difluorobenzyl)-2H-tetrazol-5-yl)pyridin-2-yl)-2-hydroxypropane-1-sulfonamide] | 24 |  |
| CC(O)(CS(N)(=O)=O)c1cccc(-c2nnn(Cc3cc(F)ccc3F)n2)n1 (single isomer, unassigned) [Example 18, (R or S)-2-(6-(2-(2,5-difluorobenzyl)-2H-tetrazol-5-yl)pyridin-2-yl)-2-hydroxypropane-1-sulfonamide] | 20 |  |
| CC(O)(CS(N)(=O)=O)c1cccc(-c2nnn(Cc3cc(OC(F)(F)F)ccc3F)n2)c1 (single isomer, unassigned) [Example 25, (R or S)-2-(3-(2-(2-fluoro-5-(trifluoromethoxy)benzyl)-2H-tetrazol-5-yl)phenyl)-2-hydroxypropane-1-sulfonamide] | 5.5 |  |
| CC(O)(CS(N)(=O)=O)c1cccc(-c2nnn(Cc3cc(OC(F)(F)F)ccc3F)n2)c1 (single isomer, unassigned) [Example 26, (R or S)-2-(3-(2-(2-fluoro-5-(trifluoromethoxy)benzyl)-2H-tetrazol-5-yl)phenyl)-2-hydroxypropane-1-sulfonamide] | 1.8 |  |
| CC(O)(CS(N)(=O)=O)c1cccc(-c2nnn(Cc3cc(OCC(F)(F)F)ccc3F)n2)n1 (single isomer, unassigned) [Example 29, (R or S)-2-(6-(2-(2-fluoro-5-(2,2,2-trifluoroethoxy)benzyl)-2H-tetrazol-5-yl)pyridin-2-yl)-2-hydroxypropane-1-sulfonamide] | 0.8 |  |
| CC(O)(CS(N)(=O)=O)c1cccc(-c2nnn(Cc3cc(OCC(F)(F)F)ccc3F)n2)n1 (single isomer, unassigned) [Example 30, (R or S)-2-(6-(2-(2-fluoro-5-(2,2,2-trifluoroethoxy)benzyl)-2H-tetrazol-5-yl)pyridin-2-yl)-2-hydroxypropane-1-sulfonamide] | 1 |  |
| CC(O)(CS(N)(=O)=O)c1nc(-c2nnn(Cc3cc(OC(F)(F)F)ccc3F)n2)ccc1Cl (single isomer, unassigned) [Example 42, (R or S)-2-(3-chloro-6-(2-(2-fluoro-5-(trifluoromethoxy)benzyl)-2H-tetrazol-5-yl)pyridin-2-yl)-2-hydroxypropane-1-sulfonamide] | 12 |  |
| CC(O)(CS(N)(=O)=O)c1nc(-c2nnn(Cc3cc(OC(F)(F)F)ccc3F)n2)ccc1Cl (single isomer, unassigned) [Example 43, (R or S)-2-(3-chloro-6-(2-(2-fluoro-5-(trifluoromethoxy)benzyl)-2H-tetrazol-5-yl)pyridin-2-yl)-2-hydroxypropane-1-sulfonamide] | 8.2 |  |
| CC(C(O)c1cccc(-c2nnn(Cc3cc(OC(F)(F)F)ccc3F)n2)n1)S(N)(=O)=O (single isomer, unassigned) [Example 49, (JR or 1S,2R or 2S)-1-(6-(2-(2-fluoro-5-(trifluoromethoxy)benzyl)-2H-tetrazol-5-yl)pyridin-2-yl)-1-hydroxypropane-2-sulfonamide] | 5.7 |  |
| CC(C(O)c1cccc(-c2nnn(Cc3cc(OC(F)(F)F)ccc3F)n2)n1)S(N)(=O)=O (single isomer, unassigned) [Example 50, (JR or 1S,2R or 2S)-1-(6-(2-(2-fluoro-5-(trifluoromethoxy)benzyl)-2H-tetrazol-5-yl)pyridin-2-yl)-1-hydroxypropane-2-sulfonamide] | 6.6 |  |
| CC(O)(CS(N)(=O)=O)c1cccc(-c2cnn(Cc3cc(OC(F)(F)F)ccc3F)n2)n1 (single isomer, unassigned) [Example 62, (R or S)-2-(6-(2-(2-fluoro-5-(trifluoromethoxy)benzyl)-2H-1,2,3-triazol-4-yl)pyridin-2-yl)-2-hydroxypropane-1-sulfonamide] | 3.4 |  |
| Cc1ccc(F)c(Cn2nnc(-c3cccc([C@@](C)(O)CS(N)(=O)=O)n3)n2)c1Cl [Example 63] |  | 3.8 |
| C[C@](O)(CS(N)(=O)=O)c1cccc(-c2nnn(Cc3cc(F)ccc3Br)n2)n1 [Example 64] |  | 13 |
| C[C@](O)(CS(N)(=O)=O)c1cccc(-c2nnn(Cc3ccc(Br)cc3F)n2)n1 [Example 65] |  | 17 |
| C[C@](O)(CS(N)(=O)=O)c1cccc(-c2nnn(Cc3cccc(Br)c3F)n2)n1 [Example 66] |  | 28 |
| C[C@](O)(CS(N)(=O)=O)c1cccc(-c2nnn(Cc3c(F)cccc3Br)n2)n1 [Example 67] |  | 8.1 |
| Cc1cc(C)c(C)c(Cn2nnc(-c3cccc([C@@](C)(O)CS(N)(=O)=O)n3)n2)c1 [Example 68] |  | 16 |
| Cc1cccc(Cn2nnc(-c3cccc([C@@](C)(O)CS(N)(=O)=O)n3)n2)c1C [Example 69] |  | 11 |
| C[C@](O)(CS(N)(=O)=O)c1cccc(-c2nnn(Cc3cccc(Cl)c3Cl)n2)n1 [Example 70] |  | 22 |
| Cc1ccc(C(C)C)cc1Cn1nnc(-c2cccc([C@@](C)(O)CS(N)(=O)=O)n2)n1 [Example 72] |  | 7.3 |
| C[C@](O)(CS(N)(=O)=O)c1cccc(-c2nnn(Cc3c(F)ccc(Cl)c3F)n2)n1 [Example 73] |  | 19 |
| C[C@](O)(CS(N)(=O)=O)c1cccc(-c2nnn(Cc3cc(C(F)(F)F)ccc3Cl)n2)n1 [Example 74] |  | 21 |
